Measurements taken from paper PMC4579271, “Inflammatory Signaling by NOD-RIPK2 Is Inhibited by Clinically Relevant Type II Kinase Inhibitors” (Chemistry & Biology, 2015).
Read-outs that look alike come from different tables or passages of the source.

Key:
[1] = target: human RIPK2 recombinant kinase domain (Homo sapiens, UniProt O43353, R171C); experiment: Fluorescence-based thermal shift assay; conditions: for ΔTm at 10 µM: read-out: thermal shift (ΔTm); for thermal shift (ΔTm): RIPK2 2 μM, inhibitor 10 μM
human RIPK2 recombinant kinase domain, sequence (O43353 8-317 R171C): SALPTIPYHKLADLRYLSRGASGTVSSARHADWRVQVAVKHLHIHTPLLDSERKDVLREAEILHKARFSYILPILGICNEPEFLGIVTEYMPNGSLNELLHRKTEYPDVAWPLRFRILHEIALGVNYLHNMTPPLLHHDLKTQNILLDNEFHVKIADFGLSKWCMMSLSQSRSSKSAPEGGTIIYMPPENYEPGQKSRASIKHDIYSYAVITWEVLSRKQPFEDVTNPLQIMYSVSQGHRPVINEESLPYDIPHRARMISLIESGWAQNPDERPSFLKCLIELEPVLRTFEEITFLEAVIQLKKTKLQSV

RIPK2 [2] = target: RIPK2 (Homo sapiens, UniProt O43353); experiment: ADPGlo in vitro kinase assay; assay type: biochemical; conditions: Figure S5A
RIPK2 (Homo sapiens, UniProt O43353), sequence (O43353 18-294 limits assumed): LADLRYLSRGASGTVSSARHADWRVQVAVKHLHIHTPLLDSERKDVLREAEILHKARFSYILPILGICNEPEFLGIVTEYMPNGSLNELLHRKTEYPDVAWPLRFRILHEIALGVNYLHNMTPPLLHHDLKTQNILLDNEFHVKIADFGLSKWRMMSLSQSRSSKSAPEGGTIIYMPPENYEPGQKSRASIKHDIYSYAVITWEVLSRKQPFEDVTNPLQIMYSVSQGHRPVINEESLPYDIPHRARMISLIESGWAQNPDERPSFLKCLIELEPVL
Description: (§1) For ADPGlo (Promega) assays, 1 ng of Abl or 10 ng of RIPK2 was diluted in reaction buffer (40 mM Tris-HCl [pH 7.5], 20 mM MgCl2, 0.5 mM DTT, and 0.01% BSA) supplemented with 50 μM ATP and a 10-point dose range of inhibitors. Detailed information is provided in the Supplemental Experimental Procedures.
(§2) 40C centrifuge at 14,000 rpm for 15 min to collect lysates. Protein concentrations were […]
(§3) Equal amounts of proteins were separated using 8-10% SDS-PAGE, followed by overnight incubations with antibodies according to the manuf acturer’s recommendations.
(§4) AD P G l o in vitro kinase assays
(§5) For ADPGlo (Promega) assays, 1 ng Abl or 10 ng of RIPK2 was diluted in reaction buff er (40 mM Tris-HCl pH 7.5, 20 mM MgCl2, 0.5 m M DTT, 0.01% BSA) supplemented with 50 µM ATP and 10-point dose range of inhibitors. Reactions were performed at room temperature for 1 hour. Reactions were performed in 5 µL total volume (5% final concentration of DMSO) and stopped by addition of 5 µL of ADPGlo reagent for 40 min at room temperature. Luminescent signal was generated by addition of 10 µL of kinase detection reagent for 30 minutes at room temperature and determined using Victor3V platereader (Perkin Elmer). Specific signal was calculated by subtracting values in the wells without protein and inhibitor from the values in the test wells. Inhibition, % = ((specif ic signal (DMSO control) - specif ic signal (inhibitor))/ (specif ic signal (DMSO control))) x 100%. Non-linear regression to determine IC50 values was perf ormed using Prism software (GraphPad). qPCR analysis in RAW 264.7 cells
(§6) RAW cells were seeded at 2X105 cells/well in 12 well plates. Af ter 24 hours, cells were treated with inhibitors and stimulated with 10 µg/mL MDP f or 24 hours. Total RNAs were isolated using […]

[3] = system: NF-κB activation in HEKBlue cells expressing NOD2; experiment: HEKBlue NF-κB-SEAP reporter activation assay, L18-MDP stimulation; conditions: for inhibition of NOD2 (MDP) response in HEKBlue cells: Figure S5B; for EC50: Homo sapiens, HEK-Blue, 8 h, read-out: NFκB activity EC50
Abl = Abl (Homo sapiens, UniProt P00519); experiment: ADPGlo in vitro kinase assay; assay type: biochemical; conditions: Figure S5A
Abl, sequence (P00519 whole entry, species assumed): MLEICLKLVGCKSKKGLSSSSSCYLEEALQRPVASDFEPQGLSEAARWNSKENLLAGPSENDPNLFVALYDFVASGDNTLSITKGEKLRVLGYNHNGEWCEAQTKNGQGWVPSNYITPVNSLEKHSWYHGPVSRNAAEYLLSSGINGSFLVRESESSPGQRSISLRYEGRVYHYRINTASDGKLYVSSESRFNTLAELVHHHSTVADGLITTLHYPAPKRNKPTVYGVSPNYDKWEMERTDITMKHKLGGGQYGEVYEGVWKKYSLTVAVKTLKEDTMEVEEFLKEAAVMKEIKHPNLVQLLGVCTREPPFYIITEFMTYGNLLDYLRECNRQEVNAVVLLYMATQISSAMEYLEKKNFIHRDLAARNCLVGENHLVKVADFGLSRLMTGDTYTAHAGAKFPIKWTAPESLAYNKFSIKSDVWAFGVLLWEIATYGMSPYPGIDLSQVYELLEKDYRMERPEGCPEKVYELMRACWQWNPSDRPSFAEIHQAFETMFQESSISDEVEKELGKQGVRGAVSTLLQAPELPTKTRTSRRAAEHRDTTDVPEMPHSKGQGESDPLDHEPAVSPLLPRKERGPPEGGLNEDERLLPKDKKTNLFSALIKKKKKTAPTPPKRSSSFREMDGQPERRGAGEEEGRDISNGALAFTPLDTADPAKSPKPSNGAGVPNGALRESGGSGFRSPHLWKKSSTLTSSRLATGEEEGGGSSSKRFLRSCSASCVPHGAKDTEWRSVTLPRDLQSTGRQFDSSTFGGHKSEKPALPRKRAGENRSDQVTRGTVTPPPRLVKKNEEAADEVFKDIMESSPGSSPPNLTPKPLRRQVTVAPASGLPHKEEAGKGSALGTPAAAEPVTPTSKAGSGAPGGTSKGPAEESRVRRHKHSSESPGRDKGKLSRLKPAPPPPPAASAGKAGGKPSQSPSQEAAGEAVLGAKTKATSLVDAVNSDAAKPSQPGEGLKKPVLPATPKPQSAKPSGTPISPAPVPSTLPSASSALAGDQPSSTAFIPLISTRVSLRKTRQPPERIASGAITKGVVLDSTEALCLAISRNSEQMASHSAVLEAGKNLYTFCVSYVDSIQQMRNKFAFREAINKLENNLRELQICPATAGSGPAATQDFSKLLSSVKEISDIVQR
Description: as §1, §2, §3, §4, §5, §6

[4] = system: phospho-Ser176-RIPK2 (p-RIPK2) in NOD2-expressing HEK293 cells; experiment: Western blot of phospho-Ser176-RIPK2 in HEKBlue cells after L18-MDP
RIPK2 [5] = conditions: ref Vogt et al., 2011; cited from earlier work
[6] = system: LPS pathway in THP-1 cells; experiment: Flow cytometry of TNF production in THP-1 cells, LPS; assay type: cell-based, human; conditions: 10 μM
Description: Figure S7, Related to Figure 7. Inhibition of NOD2 signaling in the human monocytic cell
line THP-1. Representative FACS blots (A) and quantif ication of TNF production (B) in THP-1
cells stimulated with L18-MDP or LPS. In indicated conditions cells were preincubated with
k inase inhibitors for 1 hour before activation of NOD2 and TLR4 receptor for 2.5 hours.
(1 picture or pasted object on this page, not shown here)

[7] = system: RIPK2 ubiquitination in THP-1 cells; experiment: TUBE purification of ubiquitin conjugates, L18-MDP-stimulated THP-1 cells; conditions: 100 nM pre-treatment, 200 ng/ml L18-MDP
[8] = system: NOD2-dependent TNF production in primary human monocytes; experiment: Flow cytometry of intracellular TNF in primary human monocytes, L18-MDP; assay type: cell-based; conditions: 200 ng/ml L18-MDP
Description: Experimental conditions are measured in 4–5 healthy donors. […] Gray background indicates range without inhibitors. See also Figure S7.

c1cc(-c2cnn3cc(-c4ccc(OCCN5CCCCC5)cc4)cnc23)ccn1 [Dorsomorphin]
ΔTm at 10 µM [1]: 9.6 °C

Cc1cn(-c2cc(NC(=O)c3ccc(C)c(Nc4nccc(-c5cccnc5)n4)c3)cc(C(F)(F)F)c2)cn1 [nilotinib]
inhibition of RIPK2 in vitro (RIPK2 [2]): did not inhibit | inhibition of NOD2 (MDP) response in HEKBlue cells [3]: did not inhibit

Cc1cccc(-c2nn(C(=S)Nc3ccccc3)cc2-c2ccnc3ccccc23)n1 [TGFβ inhibitor IV (A-83-01)]
thermal shift (ΔTm) [1]: 8.4 °C

CN1CCN(Cc2ccc(NC(=O)c3ccc(C(C)(C)C)c(C#Cc4cnc5cccnn45)c3)cc2C(F)(F)F)CC1 [CS6]
inhibition of RIPK2 in vitro (RIPK2 [2]): loss of inhibition | inhibition of Abl kinase activity (Abl): loss of inhibition | inhibition of NOD2 (MDP) response in HEKBlue cells [3]: did not inhibit

COC(=O)[C@@]1(O)C[C@H]2O[C@]1(C)n1c3ccccc3c3c4c(c5c6ccccc6n2c5c31)C(=O)NC4 [K252a]
thermal shift (ΔTm) [1]: 10.0 °C

CNC(=O)c1cc(Oc2ccc(NC(=O)Nc3ccc(Cl)c(C(F)(F)F)c3)cc2)ccn1 [sorafenib]
EC50 [3]: 16.9 nM | inhibition of L18-MDP-induced p-RIPK2 [4]: inhibited by low nanomolar concentrations

c1ccc2c(-c3cnn4cc(-c5ccc(N6CCNCC6)cc5)cnc34)ccnc2c1 [LDN-193189]
IC50 (RIPK2 [5]): 25 nM | thermal shift (ΔTm) [1]: 12.1 °C

COc1cc2ncnc(Nc3ccc(F)c(Cl)c3)c2cc1OCCCN1CCOCC1 [gefitinib]
LPS pathway TNF production [6]: also inhibited the LPS pathway | L18-MDP-induced RIPK2 ubiquitination [7]: less robust inhibitory effects

Cc1nc(Nc2ncc(C(=O)Nc3c(C)cccc3Cl)s2)cc(N2CCN(CCO)CC2)n1 [Dasatinib]
ΔTm at 10 µM [1]: 9.5 °C

CN[C@@H]1C[C@H]2O[C@@](C)([C@@H]1OC)n1c3ccccc3c3c4c(c5c6ccccc6n2c5c31)C(=O)NC4 [Staurosporine]
ΔTm at 10 µM [1]: 9.1 °C

CN1CCC(Nc2ncc3ncnc(Nc4ccc(F)c(Cl)c4)c3n2)CC1 [BIBX1382]
ΔTm at 10 µM [1]: 8.7 °C

CNC(=O)c1cc(Oc2ccc(NC(=O)Nc3ccc(Cl)c(C(F)(F)F)c3)c(F)c2)ccn1 [regorafenib]
EC50 [3]: 3.8 nM | concentration completely abrogating NOD2-dependent TNF production [8]: 100 nM | inhibition of L18-MDP-induced p-RIPK2 ([4]; 1 μg/ml L18-MDP, 30 min): inhibited by low nanomolar concentrations | L18-MDP-induced RIPK2 ubiquitination [7]: less robust inhibitory effects
